“Also recorded” adds a separate entry of the source.
Legend:
[1] = tested on: HIV-1 reverse transcriptase P225H plus K103N, Y181C or both; assay: Phenotypic susceptibility assay, P225H with K103N, Y181C or K103N+Y181C; assay type: cell-based; conditions: P225H added to K103N, Y181C or K103N+Y181C versus corresponding RTV lacking P225H
Method: (§1) Transfections were performed using a calcium-phosphate precipitation procedure. […] Cell lysates were assayed for luciferase activity (FIG. 3). […] The drug inhibition curves are shown in (FIG. 3).
Resistance test vectors were constructed containing the P225H mutation alone and in combination with other known drug resistance mutations (K103N, Y181C) known to modulate the HIV susceptibility to NNRTIs. […] (Sakar G and Sommar S S (1994) Biotechniques 8(4), 404-407). […] The P225H mutation was also introduced into a RTV containing additional mutations at K103N, Y181C or both (K103N+Y181C).

[2] = tested on: patient 780 virus (RT K103N, P225H); assay: Phenotypic susceptibility assay, patient 780 (FIG. 8B); assay type: cell-based, HIV
Method: Phenotypic Drug Susceptibility and Resistance Profile: Patients 780. This is a second example of the third pattern of NNRTI susceptibility/resistance.
as §1

[3] = molecular target: RT with P236L substitution (Human immunodeficiency virus type 1 group M subtype B, UniProt P04585, P823L); conditions: cited from earlier work; for previously reported effect of the P236L mutation: Dueweke et al. 1993
[4] = tested on: patient 487 virus (RT M184V, K103N); conditions: FIG. 4
Method: (§2) Resistance tests were carried out with resistance test vectors using two host cell types. Resistance test vector viral particles were produced by a first host cell (the resistance test vector host cell) that was prepared by transfecting a packaging host cell with the resistance test vector and the packaging expression vector. The resistance test vector viral particles were then used to infect a second host cell (the target host cell) in which the expression of the indicator gene is measured.
(§3) The resistance test vectors containing a functional luciferase gene cassette were constructed and host cells were transfected with the resistance test vector DNA. The resistant test vectors contained patient-derived reverse transcriptase and protease sequences that were either susceptible or resistant to the antiretroviral agents, such as nucleoside reverse transcriptase inhibitors, non-nucleoside reverse transcriptase inhibitors and protease inhibitors. The resistance test vector viral particles produced by transfecting the resistance test vector DNA into host cells, either in the presence or absence of protease inhibitors, were used to infect target host cells grown either in the absence of NRTI or NNRTI or in the presence of increasing concentrations of the drug. The amount of luciferase activity produced in infected target host cells in the presence of drug was compared to the amount of luciferase produced in infected target host cells in the absence of drug. Drug resistance was measured as the amount of drug required to inhibit by 50% the luciferase activity detected in the absence of drug (inhibitory concentration 50%, IC50). The IC50 values were determined by plotting percent drug inhibition vs. log10 drug concentration.
(§4) Host cells were seeded in 10-cm-diameter dishes and were transfected several days after plating with resistance test vector plasmid DNA and the envelope expression vector. Transfections were performed using a calcium-phosphate precipitation procedure. The cell culture media containing the DNA precipitate was replaced with fresh medium, from one to 24 hours, after transfection. Cell culture media containing resistance test vector viral particles was harvested one to four days after transfection and was passed through a […] filter before being stored at −80° C. HIV capsid protein (p24) levels in the harvested cell culture media were determined by an EIA method as described by the manufacturer (SIAC; Frederick, Md.). Before infection, target cells (293 and 293/T) were plated in cell culture media. Control infections were performed using cell culture media from mock transfections (no DNA) or transfections containing the resistance test vector plasmid DNA without the envelope expression plasmid. One to three or more days after infection the media was removed and cell lysis buffer (Promega) was added to each well. […] The inhibitory effect of the drug was determined using the following equation: % luciferase inhibition=1-(RLUluc[drug]÷RLUluc)×100 where RLUluc [drug] is the relative light unit of luciferase activity in infected cells in the presence of drug and RLUluc is the Relative Light Unit of luciferase activity in infected cells in the absence of drug. IC50 values were obtained from the sigmoidal curves that were generated from the data by plotting the percent inhibition of luciferase activity vs. the log10 drug concentration.

[5] = tested on: RTV-675 patient virus (RT A98G); conditions: >1 decreased susceptibility
Method: as §2, §3, §4

[6] = tested on: patient 302 virus clones K103N, P225H versus K103N, I135M, R211K; conditions: patient 302 clones with versus without P225H, FIG. 8C
Method: as §2, §3, §4

[7] = tested on: HIV reverse transcriptase K103N + Y181C double mutant; conditions: K103N + Y181C double mutant compared to single mutants, FIG. 5
Method: as §2, §3, §4

[8] = tested on: RTV-652 patient virus (RT V108I); conditions: >1 decrease, <1 increased susceptibility
Method: as §2, §3, §4

[9] = tested on: RTV-644 patient virus (RT K101E, G190S); assay: Phenotypic susceptibility assay, RTV-644 (patient 97-644 / 98-644); assay type: cell-based, HIV-1; conditions: for decrease in susceptibility: RTV-644 patient virus; for change in susceptibility / resistance: RTV-644 patient virus compared to reference virus
Method: as §2, §3
Host cells were seeded in 10-cm-diameter dishes and were transfected several days after plating with resistance test vector plasmid DNA and the envelope expression vector. Transfections were performed using a calcium-phosphate precipitation procedure. The cell culture media containing the DNA precipitate was replaced with fresh medium, from one to 24 hours, after transfection. […] HIV capsid protein (p24) levels in the harvested cell culture media were determined by an EIA method as described by the manufacturer (SIAC; Frederick, Md.). […] The inhibitory effect of the drug was determined using the following equation: % luciferase inhibition=1-(RLUluc[drug]÷RLUluc)×100 where RLUluc [drug] is the relative light unit of luciferase activity in infected cells in the presence of drug and RLUluc is the Relative Light Unit of luciferase activity in infected cells in the absence of drug. […]

[10] = tested on: HIV reverse transcriptase mutation at codon 230 alone or in combination with codon 181; assay: Phenotypic susceptibility assay, mutation at codon 230 alone or with codon 181; assay type: cell-based
[11] = tested on: RTV-955 patient virus (RT K101E, K103N, Y181C, G190A mixtures); assay: Phenotypic susceptibility assay, RTV-955 (patient 98-955); assay type: cell-based, HIV-1
Method: as §1
This patient had been previously treated with nelfinavir (a PR1).

[12] = tested on: RTV-302 patient virus (RT K103N, I135M, T200A, P225H); assay: Phenotypic susceptibility assay, RTV-302 (patient 97-302); assay type: cell-based, HIV-1
Method: as §1
This patient had been treated with d4T, indinavir and DMP-266 for a period of approximately 10 months. […] An IC50 was determined for each drug tested. Susceptibility of the patient virus to each drug was examined and compared to known patterns of susceptibility. […] Patient sample 97-302 was examined further for genotypic changes associated with the observed pattern of susceptibility.

[13] = tested on: RTV-300 patient virus (RT K32N, M184V, Y188L); assay: Phenotypic susceptibility assay, RTV-300 (patient 97-300); assay type: cell-based, HIV-1
Method: as §1
This patient had been previously treated with d4T and 3TC (NRTIs), indinavir (a PR1) and efavirenz (an NNRTI).

[14] = tested on: RTV-209 patient virus (RT E138A, Y188L); assay: Phenotypic susceptibility assay, RTV-209 (patient 97-209); assay type: cell-based, HIV-1
Method: as §1
This patient had been previously treated with AZT, ddI, d4T and 3TC (NRTIs), indinavir (a PRIs) and adefovir. […].

Structure (SMILES)	change in susceptibility [1]	change in susceptibility [2]	previously reported effect of the P236L mutation [3]	resistance profile [4]	fold change in susceptibility [5]	effect of P225H on resistance associated with K103N [6]	resistance profile [7]	fold change in susceptibility [8]	decrease in susceptibility [9]	change in susceptibility / resistance [9]	change in susceptibility [10]	decrease in susceptibility [11]	change in susceptibility [12]	decrease in susceptibility [13]	decrease in susceptibility [14]	reduction of IC50 ([3]; P236L substitution)
CC(C)Nc1cccnc1N1CCN(C(=O)c2cc3cc(NS(C)(=O)=O)ccc3[nH]2)CC1 [delavirdine]	more susceptible to inhibition; also recorded: increase; also recorded: decreases the amount of delavirdine resistance	reduced susceptibility	delavirdine resistance	increased resistance	2.1 fold	reduces the amount delavirdine resistance	further increase in resistance	0.97 fold	2.5 fold	little or no resistance	significant decrease	4 fold	modest decrease; also recorded: reduced susceptibility	25 fold	75 fold	–
Cc1ccnc2c1NC(=O)c1cccnc1N2C1CC1 [nevirapine]	did not significantly change; also recorded: little or no change; also recorded: does not decrease the amount of nevirapine resistance	reduced susceptibility	nevirapine hypersensitivity	increased resistance	6 fold	does not alter the amount of nevirapine resistance	further increase in resistance	5 fold	600 fold	resistant; also recorded: large reduction in susceptibility	significant decrease	530 fold	significant decrease; also recorded: reduced susceptibility	greater than 800 fold	greater than 800 fold	7 to 10 fold

Source: patent publication US20050130134A1, “Means and methods for monitoring non-nucleoside reverse transcriptase inhibitor antiretroviral therapy and guiding therapeutic decisions in the treatment HIV-AIDS” (ViroLogic, Inc., priority 2000, published 2005)
